# Laboratory results from ChEMBL document CHEMBL4715897, “A new 1-nitro-9-aminoacridine derivative targeting yeast topoisomerase II able to overcome fluconazole-resistance” (2021).
# Active and inactive are the calls of the source. No cut-off for these calls is given here.
# How the values were obtained:
# Trichophyton rubrum = experiment: Antifungal activity against Trichophyton rubrum assessed as reduction in microbial growth after 48 hrs by microdilution method; format: functional
# Candida albicans [1] = experiment: Antibiofilm activity against Candida albicans ATCC 10231 at concentration of 0.25 MIC by XTT assay; format: functional, organism-based
# Nakaseomyces glabratus [2] = experiment: Fungicidal activity against Candida glabrata DSM 11226; format: functional
# Saccharomyces cerevisiae [3] = experiment: Antifungal activity against Saccharomyces cerevisiae ATCC 9763 assessed as reduction in microbial growth; format: functional
# Pichia kudriavzevii [4] = experiment: Fungicidal activity against Candida krusei DSM 6128; format: functional
# Pichia kudriavzevii [5] = experiment: Antifungal activity against Candida krusei ATCC 6258 assessed as reduction in microbial growth; format: functional
# Candida albicans [6] = experiment: Growth inhibition of Candida albicans ATCC 10231 assessed as reduction in yeast to mycelium formation by measuring reduction in hyphal growth at 0.25 MIC after 3 hrs by light microscopic method relative to control; format: functional
# Saccharomyces cerevisiae [7] = experiment: Fungicidal activity against Saccharomyces cerevisiae ATCC 9763; format: functional
# Candida albicans [8] = experiment: Fungicidal activity against Candida albicans ATCC 10231 assessed as bacterial killing at concentration of MIC after 5 hrs relative to control; format: functional
# Candida albicans [9] = experiment: Fungicidal activity against Candida albicans ATCC 10231 assessed as bacterial killing at concentration of 2 MIC after 1 hrs relative to control; format: functional
# Candida albicans [10] = experiment: Fungicidal activity against Candida albicans ATCC 10231 assessed as bacterial killing at concentration of 4 MIC after 1 hrs relative to control; format: functional
# Candida albicans [11] = experiment: Fungicidal activity against Candida albicans ATCC 10231; format: functional
# Candida albicans [12] = experiment: Antifungal activity against Candida albicans ATCC 10231 assessed as reduction in microbial growth; format: functional
# Candida parapsilosis [13] = experiment: Antifungal activity against Candida parapsilosis ATCC 22019 assessed as reduction in microbial growth; format: functional; details: Lodderomyces parapsilosis
# Candida parapsilosis [14] = experiment: Fungicidal activity against Candida parapsilosis DSM 5784; format: functional; details: Lodderomyces parapsilosis
# Nakaseomyces glabratus [15] = experiment: Antifungal activity against Candida glabrata ATCC 90030 assessed as reduction in microbial growth; format: functional
# Candida albicans [16] = experiment: Fungicidal activity against Candida albicans ATCC 10231 assessed as bacterial killing at concentration of 0.25 MIC after 5 hrs relative to control; format: functional
# [17] = Ratio of MFC for fungicidal activity against Saccharomyces cerevisiae ATCC 9763 to MIC for antifungal activity against Saccharomyces cerevisiae ATCC 9763; format: functional
# Candida albicans [18] = experiment: Fungicidal activity against Candida albicans ATCC 10231 assessed as bacterial killing at concentration of 2 MIC after 5 hrs relative to control; format: functional
# Candida albicans [19] = experiment: Antibiofilm activity against Candida albicans at 256 ug/ml relative to control; format: functional
compound,measurement,setting,value
O=c1c2cc(O)c(O)c(O)c2[nH]c2cc(O)cc(O)c12,MIC,Trichophyton rubrum,15.6 µg/mL
C[C@@H]1[C@H](O)[C@@H](C)/C=C/C=C/C=C/C=C/C=C/C=C/C=C/[C@H](O[C@@H]2O[C@H](C)[C@@H](O)[C@H](N)[C@@H]2O)C[C@@H]2O[C@](O)(C[C@@H](O)C[C@@H](O)[C@H](O)CC[C@@H](O)C[C@@H](O)CC(=O)O[C@H]1C)C[C@H](O)[C@H]2C(=O)O [AMPHOTERICIN B],Activity,Candida albicans [1],Active
same,MFC,Nakaseomyces glabratus [2],2 µg/mL
same,MIC90,Saccharomyces cerevisiae [3],0.5 µg/mL
same,MFC,Pichia kudriavzevii [4],2 µg/mL
same,MIC90,Pichia kudriavzevii [5],1 µg/mL
same,growth inhibition (GI),Candida albicans [6],100%
same,MFC,Saccharomyces cerevisiae [7],2 µg/mL
same,Activity,Candida albicans [8],100%
same,Activity,Candida albicans [9],100%
same,Activity,Candida albicans [10],100%
same,MFC,Candida albicans [11],2 µg/mL
same,MIC90,Candida albicans [12],0.5 µg/mL
same,MIC90,Candida parapsilosis [13],1 µg/mL
same,MFC,Candida parapsilosis [14],2 µg/mL
same,MIC90,Nakaseomyces glabratus [15],1 µg/mL
same,Activity,Candida albicans [16],70%
same,Ratio,[17],>=1
same,Activity,Candida albicans [18],100%
CCN(CC)CCCC(C)Nc1c2ccc(Cl)cc2nc2ccc(OC)cc12 (stereo not given) [QUINACRINE],Activity,Candida albicans [19],50%
